{"source": "patent EP3315495A1", "about": "“N,N' -[…], N,N' -DIAR[…] N,N' -DIARY[…] FOR USE IN TREATMENT AND PREVENTION OF INFLAMMATORY DISEASE” (Universität Innsbruck, priority 2016, dated 2018)", "key": {"[1]": {"test_system": "5-LOX product formation in PMNL", "experiment": "5-LOX product formation in PMNL stimulated with A23187 (cell-based)", "design": "species or system human", "details": "Homo sapiens, PMNL", "description": "Briefly, first a cell-based assay allows to determine the inhibition of the 5-LOX product biosynthesis. The cell suspension contained human neutrophils (PMNL) or monocytes, wherein the cells were isolated from buffy coats obtained from healthy donors pooled by gender. An aliquot cell suspension was incubated with the candidate compound for 15 min at 37 °C. The cells are treated with calcium ionophore A23187 to stimulate 5-LOX product formation for further 10 min (37 °C), optionally in presence of various concentrations of AA. The reaction was stopped with 1 mL methanol on ice.\nIn both assays, product quantification was conducted with RP-HPLC and UV detection after solid phase extraction and addition of 200 ng prostaglandin B1 as internal standard."}, "12-LOX": {"test_system": "12-LOX", "type": "cell-based", "details": "neutrophils, exogenous AA 10, 30 or 60 µM", "description": "(§1) […]. […] This could be beneficial as the 15-LOX product 15-HETE is anti-inflammatory."}, "15-LOX": {"test_system": "15-LOX", "type": "cell-based", "details": "neutrophils", "description": "as §1"}, "COX-1": {"molecular_target": "COX-1 (Homo sapiens, UniProt P23219)", "sequence (P23219 24-599)": "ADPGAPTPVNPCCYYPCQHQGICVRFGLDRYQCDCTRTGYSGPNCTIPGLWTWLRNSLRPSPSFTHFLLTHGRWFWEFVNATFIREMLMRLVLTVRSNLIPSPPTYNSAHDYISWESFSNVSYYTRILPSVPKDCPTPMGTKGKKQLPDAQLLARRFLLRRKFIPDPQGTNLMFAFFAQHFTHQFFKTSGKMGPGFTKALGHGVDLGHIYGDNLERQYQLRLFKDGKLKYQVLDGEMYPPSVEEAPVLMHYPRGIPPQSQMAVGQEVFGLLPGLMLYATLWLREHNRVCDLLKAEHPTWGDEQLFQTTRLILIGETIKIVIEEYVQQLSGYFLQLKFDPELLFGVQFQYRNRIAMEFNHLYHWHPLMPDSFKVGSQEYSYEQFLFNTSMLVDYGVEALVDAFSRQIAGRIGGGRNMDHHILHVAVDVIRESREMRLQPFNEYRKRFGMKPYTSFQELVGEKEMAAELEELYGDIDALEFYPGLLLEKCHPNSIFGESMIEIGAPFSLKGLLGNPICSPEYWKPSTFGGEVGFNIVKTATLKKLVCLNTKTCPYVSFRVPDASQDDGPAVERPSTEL", "experiment": "COX-1 activity", "type": "biochemical", "details": "concentrations up to 10 µM"}, "COX-2": {"molecular_target": "T1, COX-2 (Homo sapiens, UniProt P35354)", "T1 sequence (P35354 18-604)": "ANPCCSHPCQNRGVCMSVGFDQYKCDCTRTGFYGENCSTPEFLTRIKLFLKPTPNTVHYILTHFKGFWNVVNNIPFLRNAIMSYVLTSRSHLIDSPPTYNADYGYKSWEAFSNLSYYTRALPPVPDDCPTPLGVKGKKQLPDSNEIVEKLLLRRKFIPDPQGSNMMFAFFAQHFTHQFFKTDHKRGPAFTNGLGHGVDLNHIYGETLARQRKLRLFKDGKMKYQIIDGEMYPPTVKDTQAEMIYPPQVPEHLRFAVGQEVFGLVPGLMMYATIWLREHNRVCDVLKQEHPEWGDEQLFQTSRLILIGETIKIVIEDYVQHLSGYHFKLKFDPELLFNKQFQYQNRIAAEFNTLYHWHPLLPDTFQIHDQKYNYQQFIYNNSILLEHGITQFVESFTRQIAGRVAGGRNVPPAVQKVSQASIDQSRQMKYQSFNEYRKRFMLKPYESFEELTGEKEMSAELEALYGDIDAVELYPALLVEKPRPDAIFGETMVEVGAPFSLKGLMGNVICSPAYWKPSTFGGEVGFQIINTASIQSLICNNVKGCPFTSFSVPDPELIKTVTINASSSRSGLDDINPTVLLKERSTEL", "experiment": "COX-2 activity", "type": "biochemical", "details": "concentrations up to 10 µM"}, "mPGES": {"test_system": "mPGES", "experiment": "mPGES activity", "type": "biochemical", "details": "concentrations up to 10 µM"}, "[2]": {"test_system": "leukotriene mediated peritonitis", "experiment": "Zymosan-induced peritonitis model in mice", "type": "in vivo, CD1 male mice", "details": "intraperitoneal, 30 min prior to zymosan", "description": "Compound I-12 was evaluated in vivo in a peritonitis model in mice. The experimental protocols were approved by the Animal Care Committee of the University of Naples Federico II, in compliance with Italian regulations on protection of animals used for experimental and other scientific purpose (Ministerial Decree 116/92) as well as with the European Economic Community regulations (Official Journal of E.C. L 358/1 12/18/1986); protocol number: 2014/0018760 27th February 2014. CD1 male mice with an age of six to eight weeks were investigated. The leukotriene mediated peritonitis is induced by injection of 1 mg zymosan in 50 µl saline solution. 30 min prior to induction, the candidate compound was applied as intraperitoneal injection in different concentrations as well as DMSO as negative control and positive controls (MK886, zileuton). Results are given in Table 3, wherein […] and LTB 4 levels are measured as well as vascular permeability (VP) and the cell recruitment in the peritoneal cavity (Cell Rec). Table 3: Results from an in vivo study with a mouse peritonitis model\nIn Table 3, values in percent indicate the percent inhibition in respect to the vehicle control. Statistical significance is determined via ANOVA Bonferroni, wherein * indicates p<0.05; ** indicates p<0.01; *** indicates p<0.001 vs. vehicle. N indicates the number of investigated mice."}, "HEK cells with FLAP": {"test_system": "HEK cells with FLAP", "experiment": "5-LOX product formation in HEK cells that express FLAP"}}, "note": "Like-named read-outs stand apart in the source and are kept apart here. Marks after values point to notes of the source that are not given here.", "data": [{"compound": "Cc1cc(OCc2nc3ccccc3s2)ccc1NC(=O)Nc1ccc(Cl)c(Cl)c1", "note": "[Compound I-12, N-[4-(2-benzothiazolylmethoxy)-2-methylphenyl]-N'-(3,4-dichlorophenyl)-urea]", "values": [{"measurement": "IC50", "setting": "[1]; male PMNL cells, Exogenous AA 3 µM, read-out: IC50 values for 5-LOX product formation", "result": 380, "unit": "nM"}, {"measurement": "IC50", "setting": "[1]; male PMNL cells, Exogenous AA 10 µM, read-out: IC50 values for 5-LOX product formation", "result": 1600, "unit": "nM"}, {"measurement": "IC50", "setting": "[1]; male PMNL cells, Exogenous AA 30 µM, read-out: IC50 values for 5-LOX product formation", "result": 2100, "unit": "nM"}, {"measurement": "IC50", "setting": "[1]; male PMNL cells, Exogenous AA 60 µM, read-out: IC50 values for 5-LOX product formation", "result": 9100, "unit": "nM"}, {"measurement": "IC50", "setting": "[1]; read-out: Effect on 5-LOX product formation in PMNL, IC50", "result": 240, "unit": "nM"}, {"measurement": "product formation of 12-LOX", "setting": "12-LOX", "result": "did not inhibit"}, {"measurement": "product formation of 15-LOX (15-HETE)", "setting": "15-LOX; 10 µM AA", "result": "increase of the product formation"}, {"measurement": "product formation of 15-LOX", "setting": "15-LOX; exogenous AA 10, 30 or 60 µM", "result": "did not inhibit"}, {"measurement": "COX-1 activity", "setting": "COX-1", "result": "not affected"}, {"measurement": "COX-2 activity", "setting": "COX-2", "result": "not affected"}, {"measurement": "mPGES", "setting": "mPGES", "result": "not affected"}, {"measurement": "Cell Rec (cell recruitment in the peritoneal cavity)", "setting": "[2]; 1 mg", "result": "5.93±0.321 10^6/ml"}, {"measurement": "Cell Rec, percent inhibition in respect to the vehicle control", "setting": "[2]; 1 mg", "result": 22, "unit": "%"}, {"measurement": "LTB4", "setting": "[2]; 1 mg", "result": "280 ± 42.8", "unit": "pg/mL"}, {"measurement": "LTB4, percent inhibition in respect to the vehicle control", "setting": "[2]; 1 mg", "result": 59, "unit": "%**"}, {"measurement": "LTC4", "setting": "[2]; 1 mg", "result": "26.0 ± 9.47", "unit": "ng/mL"}, {"measurement": "LTC4, percent inhibition in respect to the vehicle control", "setting": "[2]; 1 mg", "result": 70, "unit": "%***"}, {"measurement": "Cell Rec (cell recruitment in the peritoneal cavity)", "setting": "[2]; 3 mg", "result": "4.4±0.509 10^6/ml"}, {"measurement": "Cell Rec, percent inhibition in respect to the vehicle control", "setting": "[2]; 3 mg", "result": 42, "unit": "%***"}, {"measurement": "LTB4", "setting": "[2]; 3 mg", "result": "345 ± 69.2", "unit": "pg/mL"}, {"measurement": "LTB4, percent inhibition in respect to the vehicle control", "setting": "[2]; 3 mg", "result": 50, "unit": "%*"}, {"measurement": "LTC4", "setting": "[2]; 3 mg", "result": "30.5 ± 10.3", "unit": "ng/mL"}, {"measurement": "LTC4, percent inhibition in respect to the vehicle control", "setting": "[2]; 3 mg", "result": 66, "unit": "%***"}, {"measurement": "Cell Rec (cell recruitment in the peritoneal cavity)", "setting": "[2]; 10 mg", "result": "3.36±0.439 10^6/ml"}, {"measurement": "Cell Rec, percent inhibition in respect to the vehicle control", "setting": "[2]; 10 mg", "result": 56, "unit": "%***"}, {"measurement": "LTB4", "setting": "[2]; 10 mg", "result": "193 ± 34.4", "unit": "pg/mL"}, {"measurement": "LTB4, percent inhibition in respect to the vehicle control", "setting": "[2]; 10 mg", "result": 72, "unit": "%***"}, {"measurement": "LTC4", "setting": "[2]; 10 mg", "result": "25.8 ± 2.66", "unit": "ng/mL"}, {"measurement": "LTC4, percent inhibition in respect to the vehicle control", "setting": "[2]; 10 mg", "result": 70, "unit": "%***"}, {"measurement": "VP (vascular permeability)", "setting": "[2]; 10 mg", "result": "0.347±0.09", "unit": "abs 610 nm"}, {"measurement": "VP, percent inhibition in respect to the vehicle control", "setting": "[2]; 10 mg", "result": 38, "unit": "%"}, {"measurement": "effect on 5-LOX product formation", "setting": "HEK cells without FLAP", "result": "nearly no effect"}, {"measurement": "effect on 5-LOX product formation", "setting": "HEK cells with FLAP", "result": "inhibits the product formation"}]}]}
